{"source": "patent EP2423217A1", "about": "“Peptide and protein affinity tag from mistic protein” (Forschungsverbund Berlin E.V., priority 2010, dated 2012)", "key": {"physchem": {"assay": "physchem", "details": "aqueous buffer"}, "MB peptide [1]": {"biological_target": "T1, MB peptide (Bacillus subtilis, UniProt Q5BU39)", "assay": "SPOT hybridization with TAMRA-MB: regeneration and reversibility", "type": "binding", "design": "made in house; host or cells: chemical SPOT synthesis on membrane (MultiPep synthesizer)", "details": "25 µM MB in 114 mM phosphate buffer with 50 mM NaF at pH 2.8, over night at 4°C; eight spots", "description": "A SPOT-analysis was carried out in order to assess oligomerization of the MB peptide and its ability to tether molecules. This approach is analogous to that of affinity chromatography, in that a solid phase-bound synthesized MB peptide is used to bind and isolate a molecule of interest that is tagged with the protein affinity tag of the present invention.\nThe nitrocellulose membrane which contained the MB peptide was incubated, and thus hybridized, with TAMRA-MB (MB peptide to which the TAMRA colouring agent has been covalently attached). If the spots remained coloured after washing an oligomerisation was judged to have taken place. Solid-phase bound MB peptide was synthesized directly on the membranes. Whatman 50 filter paper (Whatman GmbH, Dassel, Germany) was used for membrane-bound peptide synthesis. SPOT positions with a diameter of 3 mm were defined by treating isolated locations on the membrane with coupling reagents. The membrane bound peptides were assembled by the SPOT synthesizer MultiPep (Intavis Bioanalytical Instruments AG, Köln, Germany) according to standard protocols.\nSpotted membranes were washed and blocked according to standard protocols before hybridization. After rinsing once with incubation buffer membranes were hybridized with TAMRA-MB over night at 4 °C under agitation. Incubation results were documented by scanning the membranes with a HP scanjet at 600 dpi. […]"}, "MB peptide [2]": {"biological_target": "T1, MB peptide", "assay": "CD spectroscopy of MB oligomerization at different pH values", "type": "physicochemical", "design": "made in house", "details": "for ratio 208 nm / 222 nm: 154 mM NaF; for oligomer state: AUC and CD spectroscopy", "source_text": "The MB monomer is mostly unfolded (~70% random coil), whereby the MB tetramer forms an α-helix. […] This pH sensitive switchability is reversible and occurs completely and suddenly from pH 6.0 to 5.4.\n• Figure 1: Molecular model of the secondary protein structure of the helical MB peptide. Hydrophobicity of the peptide MB is also indicated by differential after folding into an ideal helix. Hydrophilic groups are indicated with arrows from above, hydrophobic groups from below. (A) The hydrophobic areas in which the binding takes place. (B) View of the backside. • Figure 2: CD spectroscopy of MB at different pH values. Circular ellipticity of 50 µM MB at 208 nm or 222 nm was measured against buffer pH in 10 mM citrate or 10 mM phosphate buffer with 154 mM NaF at 20°C. Citrate buffer was applied for the pH range from pH 6.5 to 4 and phosphate buffer for the pH ranges 1.5 to 4 and 6.5 to 10. MB structure was uninfluenced by buffer type, because CD spectra in citrate buffer were equal to spectra in phosphate buffer in the overlapping pH regions. The wavelengths 208 nm and 222 nm are characteristic for α-helices. […] (A) The snapshots of the same membrane repeatedly hybridised (left) and regenerated (right) show similar results after each of the six repetitions. […] (B) Plot of the normalized median intensities of each spot against number of incubations. • Figure 4: Mutation analysis of the amino acids important in oligomerization. […] The amino acids numeration is shown as small numbers above the wild type letters, the wt sequence can be found in the middle (black frame). Letters listed vertically above the wt sequence intensify the interactions, letters below weaken or abolish. The bigger the letter size the stronger the influence, linear to the distance of the intensity to the wt mean intensity in times of SD, starting with a minimum of ±2 SD. • Figure 5: Summary of the single-point mutation and length analysis of the MB oligomerization (A) Single-point mutations substantially (p<0.05) influencing the oligomerization were grouped and are represented by bars above or below the wild type sequence (black frame).The amino acids numeration is shown as small numbers above the wild type letters. Bars above the wild type sequence signify an enhanced oligomerization and below a weakened or abolished. The bar size reflects the strength of the mutation's influences on the oligomerization. […] Amino acid positions which were especially mutation-susceptible are marked by a + or -. (B) MB was systematically truncated with a step size of two amino acids from either one of the termini or simultaneously both termini. The shortest still with TAMRA-MB oligomerizing truncates are shown in black frames.\nIn order to assess the oligomerization properties of MB peptide circular dichroism spectroscopy (CD spectroscopy) was carried out according to standard procedures. The MB tetramerization was triggered by acidic pH values while remaining unchanged in basic conditions. Starting from basic pH 10 down to slightly acidic pH 6 the structure of MB was invariable at constant concentrations. Between pH 6 to 5.4 a rapid and tremendous increase in helicity occurred. Below pH 5.4 the pronounced α-helical MB structure remained constant down to pH 1.5 (see Fig. 2)."}, "MB peptide [3]": {"biological_target": "T1, MB peptide", "assay": "Temperature dependence of MB peptide tetramerization", "type": "physicochemical", "design": "made in house", "description": "The tetramerization of MB peptide is however dependent on temperature and the salt concentration of the buffer. In general, the proportion of MB peptide forming a tetramer is reduced with increasing temperature. At approximately 70°C, only monomers of the MB peptide are present. As the salt concentration increases, the tetramerisation increases accordingly at neutral pH values."}}, "note": "Where no end group is shown, it is not given here."}
{"sequence": "MKVTSEEKEQLSTAIDRMNEGLDAFIQLYNES [MB peptide]", "values": [{"measurement": "solubility", "setting": "physchem", "result": "≥ 2200", "unit": "µM"}, {"measurement": "consecutive incubations and regenerations with reproducible oligomerization", "setting": "MB peptide [1]", "result": "six"}, {"measurement": "pH range of switch from monomer to α-helical tetramer (increase in helicity)", "setting": "MB peptide [2]; 50 µM MB, 10 mM citrate or 10 mM phosphate buffer with 154 mM NaF, 20°C", "result": "6 to 5.4"}, {"measurement": "random coil", "setting": "MB peptide [2]; MB monomer", "result": "~ 70%"}, {"measurement": "ratio 208 nm / 222 nm", "setting": "MB peptide [2]; pH<5.4, 50 µM MB, 20°C", "result": 0.93}, {"measurement": "ratio 208 nm / 222 nm", "setting": "MB peptide [2]; pH>6, 50 µM MB, 20°C", "result": 2.18}, {"measurement": "oligomer state", "setting": "MB peptide [2]; same concentration (50 µM), pH <5.4", "result": "converts completely into tetramer"}, {"measurement": "oligomer state", "setting": "MB peptide [2]; up to 50 µM in phosphate buffer at pH 6.5", "result": "remains purely as monomer"}, {"measurement": "temperature at which only monomers are present", "setting": "MB peptide [3]", "result": "approximately 70 °C"}]}
